This is an account of results in patent publication US8232270B2, “Bivalent (−)-meptazinol compounds and/or their salts, and their preparation and futilization” (priority 2006, dated 2012).

“And” between values parts separate entries of the source, which are not always exact repeats. Equal entries are not always repeated. Structures can show the parent of a compound that is named as a salt.

One assay has as its target T1, mice serum BChE (Mus musculus, UniProt Q03311).
T1 construct: mice serum was the source of BChE; from tissue; host or cells: mouse serum
Nature of the assay: BChE inhibition, Ellman spectrophotometric assay, mice serum. The format is biochemical. To be noted: for IC50: mean ± SEM, at least three measures, butyrylthiocholine iodide substrate. As for the experimental part:
(§1) AChE inhibiting activities were measured by a spectrophotometric assay developed by Ellman et al. It was based on the fact that AChE catalyzes the hydrolysis of acetylcholine, releasing choline and acetic acid. In this assay, acetylthiocholine (AChSC) is hydrolyzed by the enzyme, releasing thiocholine containing a sulfhydrylic group able to react with color indicating reagent. Yellowish products were measured spectrophotometrically, the amount of which reflects the activity of AChE. All the procedures were operated according to the instruction of the AChE reagent kit produced by Nanjing Jiancheng Bio-engineering Institute. Mice brain homogenate prepared in saline was used as a source of AChE; mice serum was the source of BChE.
The AChE activity was determined in a reaction mixture containing 200 μL of a solution of AChE (0.415 U/mL in 0.1 M phosphate buffer, pH 8.0), 300 μL of a solution of 5,5′-dithio-bis(2-nitrobenzoic) acid (3.3 mM DTNB in 0.1 M phosphate buffered solution, pH 7.0, containing NaHCO3 6 mM), and 30 μL of a solution of the inhibitor (six to seven concentrations). After incubation for 20 min at 37° C., acetylthiocholine iodide (300 μL of 0.05 mM water solution) was added as the substrate, and AChE activity was determined by UV spectrophotometry from the absorbance changes at […] for 3 min at 25° C. […] BChE inhibitory activity determinations were similarly carried out using butyrylthiocholine iodide (0.05 mM) as the substrate. Results are reported as the means ±SEM of IC50 obtained from at least three independent measures.
On the technique in general: In Ellman's method for cholinesterases, released thiocholine reacts with DTNB.

Assay [1] has as its target T2, AChE-induced Aβ (1-40) aggregation (human recombinant AChE) (Homo sapiens, UniProt P22303).
T2 construct: purchased Sigma-Aldrich
Kind of assay: Inhibition of AChE-induced Aβ aggregation, thioflavin T fluorescence. It is filed as biochemical. To be noted: for inhibition at 100 µM: inhibitor 100 μM, read-out: Inhibition (%) 100 μM ± SEM; for inhibition at 400 µM: read-out: Inhibition (%) 400 μM ± SEM; for IC50: extrapolated from inhibition curves, read-out: IC50 ± SEM, AChE-induced Aβ aggregation; for inhibition of AChE-induced Aβ aggregation, factor compared with propidium: relative to propidium. On the procedure: Aliquots of 2 μL Aβ (1-40) peptide (Biosource), lyophilized from 2 mg/mL HFIP solution and dissolved in DMSO, were incubated for 48 h at room temperature in 0.215 M sodium phosphate buffer (pH 8.0) at a concentration of 230 μM. For coincubation experiments, aliquots (16 μL) of human recombinant AChE (Sigma-Aldrich) (final concentration of 2.3 μM) and AChE in the presence of 2 μL of the tested inhibitors were added. Each assay was run in duplicate. To quantify amyloid fibril formation, the thioflavin T fluorescence method was then applied.
Fluorescence was monitored with excitation at 446 nm and emission at 490 nm. The percent inhibition of the AChE-induced aggregation due to the presence of increasing concentrations of the inhibitor was calculated by the following expression: 100−(IFi/IFo×100), where IFi and IFo were the fluorescence intensities obtained for Aβ plus AChE in the presence and in the absence of inhibitor, respectively, after subtracting the fluorescence of respective blanks. Inhibition curves and linear regression parameters were obtained for each compound, and the IC50 was extrapolated.

The target in assay [2] is T3, mice brain AChE (Mus musculus, UniProt P21836).
T3 construct: Mice brain homogenate prepared in saline was used as a source of AChE; from tissue; host or cells: mouse brain homogenate
T3 sequence (P21836 32-614): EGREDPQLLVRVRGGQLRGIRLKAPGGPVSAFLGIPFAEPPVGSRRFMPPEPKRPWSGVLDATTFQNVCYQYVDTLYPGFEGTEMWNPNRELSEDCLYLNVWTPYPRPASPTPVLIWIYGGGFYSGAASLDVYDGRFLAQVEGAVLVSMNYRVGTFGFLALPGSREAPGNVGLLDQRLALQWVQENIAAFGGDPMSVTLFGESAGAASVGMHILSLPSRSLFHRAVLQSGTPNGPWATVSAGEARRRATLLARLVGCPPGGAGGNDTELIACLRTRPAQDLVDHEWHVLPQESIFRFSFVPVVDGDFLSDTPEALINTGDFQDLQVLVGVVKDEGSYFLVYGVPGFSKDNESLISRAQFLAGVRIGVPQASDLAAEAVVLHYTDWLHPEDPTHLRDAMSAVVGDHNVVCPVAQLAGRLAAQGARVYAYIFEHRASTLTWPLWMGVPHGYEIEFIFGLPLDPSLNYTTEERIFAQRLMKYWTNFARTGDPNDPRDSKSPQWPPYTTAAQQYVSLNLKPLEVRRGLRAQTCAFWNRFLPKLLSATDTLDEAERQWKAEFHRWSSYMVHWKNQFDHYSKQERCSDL
Nature of the assay: AChE inhibition, Ellman spectrophotometric assay, mice brain homogenate. It is filed as biochemical. To be noted: for IC50: mean ± SEM, at least three measures, hydrochlorides, 20 min preincubation at 37° C.; for AChE selectivity: mice serum BChE versus mice brain AChE IC50. On the procedure:
as §1
After incubation for 20 min at 37° C., acetylthiocholine iodide (300 μL of 0.05 mM water solution) was added as the substrate, and AChE activity was determined by UV spectrophotometry from the absorbance changes at […] for 3 min at 25° C. […] BChE inhibitory activity determinations were similarly carried out using butyrylthiocholine iodide (0.05 mM) as the substrate. Results are reported as the means ±SEM of IC50 obtained from at least three independent measures.

Assay [3] addresses T3, mice brain AChE. To be noted: background statement; cited from earlier work.
Where [4] appears, read: inhibitor 400 μM, Aβ 230 μM, AChE 2.3 μM, 48 h.
[5] abbreviates: relative to (−)-MEP (hydrochloride).

T1 sequence (Q03311 30-603): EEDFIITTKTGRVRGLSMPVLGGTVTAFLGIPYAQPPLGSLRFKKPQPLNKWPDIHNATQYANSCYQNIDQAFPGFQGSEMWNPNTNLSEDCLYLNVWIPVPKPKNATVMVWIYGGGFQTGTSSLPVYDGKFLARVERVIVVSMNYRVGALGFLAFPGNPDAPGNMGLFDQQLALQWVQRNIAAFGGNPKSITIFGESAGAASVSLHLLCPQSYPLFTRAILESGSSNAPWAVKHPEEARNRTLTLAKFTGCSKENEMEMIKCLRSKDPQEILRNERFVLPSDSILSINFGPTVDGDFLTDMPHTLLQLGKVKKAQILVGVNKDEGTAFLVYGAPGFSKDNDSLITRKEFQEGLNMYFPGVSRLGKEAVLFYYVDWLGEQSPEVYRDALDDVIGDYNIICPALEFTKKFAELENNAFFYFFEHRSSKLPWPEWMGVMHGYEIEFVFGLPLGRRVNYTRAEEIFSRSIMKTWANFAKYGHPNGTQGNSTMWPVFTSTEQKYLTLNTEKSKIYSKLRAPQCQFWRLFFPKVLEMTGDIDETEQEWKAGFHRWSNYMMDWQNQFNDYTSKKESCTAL
T2 sequence (P22303 32-614): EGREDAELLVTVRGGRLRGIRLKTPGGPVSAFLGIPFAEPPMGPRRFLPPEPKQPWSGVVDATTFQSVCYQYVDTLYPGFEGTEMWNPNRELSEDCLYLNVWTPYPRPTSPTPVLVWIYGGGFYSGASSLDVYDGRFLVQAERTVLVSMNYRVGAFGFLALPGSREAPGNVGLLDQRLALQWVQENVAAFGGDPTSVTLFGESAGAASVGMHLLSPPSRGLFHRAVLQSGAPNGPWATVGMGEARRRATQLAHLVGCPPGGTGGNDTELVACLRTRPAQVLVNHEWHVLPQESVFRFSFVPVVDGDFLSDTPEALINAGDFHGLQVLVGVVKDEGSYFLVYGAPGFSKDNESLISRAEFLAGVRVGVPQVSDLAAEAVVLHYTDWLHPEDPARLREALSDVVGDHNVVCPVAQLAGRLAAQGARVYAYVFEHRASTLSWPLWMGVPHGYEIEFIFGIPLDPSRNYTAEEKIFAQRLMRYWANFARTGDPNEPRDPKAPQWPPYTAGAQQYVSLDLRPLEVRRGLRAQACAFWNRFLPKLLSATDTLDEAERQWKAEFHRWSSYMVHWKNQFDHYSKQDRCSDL

The IC50 is the concentration at which inhibition is half-maximal. Take `CCC1(c2cccc(O)c2)CCCCN(C)C1` (single isomer, unassigned; (-)) [(−)-meptazinol]: the IC50 against mice serum BChE came to 15000 ± 4000 nM; against mice brain AChE [2], 41000 ± 14000 nM. Moreover, the “Inhibition (%) 400 μM ± SEM” value in assay [1] (setting [4]) was 0%. Also, the AChE selectivity at mice brain AChE [2] is 0.37. Further, the “mice brain AChE inhibition test, result in words” value on mice brain AChE [3] is “potent AChE inhibitor”.
With `CC[C@@]1(c2cccc(O)c2)CCCCN(CCN2CCCC[C@@](CC)(c3cccc(O)c3)C2)C1` [(A = CH2, n = 2)], on mice serum BChE, the IC50 worked out at 125 ± 9 nM. At mice brain AChE [2], the IC50 came out at 43000 ± 20000 nM and the AChE selectivity came out at 0.0029.
For `CC[C@@]1(c2cccc(O)c2)CCCCN(CCCN2CCCC[C@@](CC)(c3cccc(O)c3)C2)C1` [(A = CH2, n = 3)] the same measures were 132 ± 51 nM, 42000 ± 14000 nM and 0.0031.
For `CC[C@@]1(c2cccc(O)c2)CCCCN(CCCCN2CCCC[C@@](CC)(c3cccc(O)c3)C2)C1` [(A = CH2, n = 4), N,N′-(1′,4′-Butylene)-bis-(−)-nor-MEP Hydrochloride] the same measures were 104 ± 29 nM, 21400 ± 7600 nM and 0.0049.
Turning to `CC[C@@]1(c2cccc(O)c2)CCCCN(CCCCCN2CCCC[C@@](CC)(c3cccc(O)c3)C2)C1` [(A = CH2, n = 5)], the IC50 was determined as 192 ± 41 nM against mice serum BChE and 4000 ± 1000 nM at mice brain AChE [2]. The AChE selectivity at mice brain AChE [2] is reported as 0.048.
In the same order, the values of `CC[C@@]1(c2cccc(O)c2)CCCCN(CCCCCCN2CCCC[C@@](CC)(c3cccc(O)c3)C2)C1` [(A = CH2, n = 6)] are 119 ± 20 nM, 1220 ± 20 nM and 0.098.
In the case of `CC[C@@]1(c2cccc(O)c2)CCCCN(CCCCCCCN2CCCC[C@@](CC)(c3cccc(O)c3)C2)C1` [(A = CH2, n = 7)], half-maximal inhibition at mice serum BChE (IC50) required 102 ± 19 nM. Further, at mice brain AChE [2], the IC50 turned out to be 270 ± 70 nM and the AChE selectivity is on record as 0.38.
Usually inhibition stands for the share of the control response that was lost under treatment. In turn, `CC[C@@]1(c2cccc(O)c2)CCCCN(CCCCCCCCN2CCCC[C@@](CC)(c3cccc(O)c3)C2)C1` [(A = CH2, n = 8)] registered an IC50 against mice serum BChE of 63 ± 8 nM. In addition, the inhibition at 100 µM in assay [1] (Aβ 230 μM, AChE 2.3 μM, 48 h) stood at 0%. In assay [1] (setting [4]), the inhibition at 400 µM is 0.15 ± 0.2%. Also, at mice brain AChE [2], 79 ± 19 nM corresponded to half-maximal inhibition (IC50) and the AChE selectivity worked out at 0.80.
On to `CC[C@@]1(c2cccc(O)c2)CCCCN(CCCCCCCCCN2CCCC[C@@](CC)(c3cccc(O)c3)C2)C1` [(A = CH2, n = 9), N,N′-(1′,9′-Nonylene)-bis-(−)-nor-MEP Hydrochloride], for which the IC50 against mice serum BChE is 10 nM. Besides, on mice serum BChE (setting [5]), the “BChE inhibition, times more potent than (−)-MEP” value turned out to be 1500 times. In addition, the “BChE inhibition, times more potent than rivastigmine” value at mice serum BChE (relative to rivastigmine) worked out at 150 times. For the same compound, in assay [1], the IC50 is 79000 nM and 79400 nM; the “inhibition of AChE-induced Aβ aggregation, factor compared with propidium” value is listed as around 2 times. In addition, the inhibition at 100 µM in assay [1] (Aβ 230 μM, AChE 2.3 μM, 48 h) was determined as 74.4 ± 4.3%. In addition, in assay [1] (setting [4]), the inhibition at 400 µM was 91.7 ± 3.6%. On mice brain AChE [2], 3.9 nM corresponded to half-maximal inhibition (IC50) and the AChE selectivity is given as 2.6. For the same compound, the “selectivity for AChE, times that of (−)-MEP” value at mice brain AChE [2] (relative to (−)-MEP) is recorded as 7 times. The “fold increase in inhibiting mice brain AChE compared with (−)-MEP” value on mice brain AChE [2] (setting [5]) is on record as 10000 fold. On mice brain AChE [2] (relative to rivastigmine), the “fold increase in inhibiting mice brain AChE compared with rivastigmine” value worked out at 1400 fold and the “selectivity for AChE, times that of rivastigmine” value is listed as 9 times.
On mice serum BChE, `CC[C@@]1(c2cccc(O)c2)CCCCN(CCCCCCCCCCN2CCCC[C@@](CC)(c3cccc(O)c3)C2)C1` [(A = CH2, n = 10)] displayed an IC50 of 17 ± 6 nM. In assay [1], the IC50 was 83000 nM and 83400 nM; the “inhibition of AChE-induced Aβ aggregation, factor compared with propidium” value is listed as around 2 times. Further, in assay [1] (Aβ 230 μM, AChE 2.3 μM, 48 h), the inhibition at 100 µM was found to be 66.6 ± 1.7%. Moreover, the inhibition at 400 µM in assay [1] (setting [4]) is 81.8 ± 1.2%. On mice brain AChE [2], this compound yielded an IC50 of 9.5 ± 4.5 nM and an AChE selectivity of 1.8.
For the compound `CC[C@@]1(c2cccc(O)c2)CCCCN(CCCCCCCCCCCN2CCCC[C@@](CC)(c3cccc(O)c3)C2)C1` [(A = CH2, n = 11)], the IC50 at mice serum BChE came out at 74 ± 11 nM. On mice brain AChE [2], this compound had an IC50 of 24 ± 8 nM and an AChE selectivity of 3.1.
Turning to `CC[C@@]1(c2cccc(O)c2)CCCCN(CCCCCCCCCCCCN2CCCC[C@@](CC)(c3cccc(O)c3)C2)C1` [(A = CH2, n = 12)], half-maximal inhibition against mice serum BChE (IC50) required 100 ± 55 nM. At mice brain AChE [2], this compound came in with an IC50 of 42 ± 20 nM and an AChE selectivity of 2.4.
`CC[N+](C)(CC)CCC[n+]1c(-c2ccccc2)c2cc(N)ccc2c2ccc(N)cc21` [Propidium iodine, reference compound]: the inhibition at 100 µM in assay [1] (Aβ 230 μM, AChE 2.3 μM, 48 h) amounted to 16.7 ± 4.4%. Further, the inhibition at 400 µM in assay [1] (setting [4]) is 79.2 ± 5.9%.
